From patent US20080206253A1, “Method For Preventing or Treating Pain in a Mammal” (priority 2005, published 2008)
“Also recorded” adds a separate entry of the source.

Test system: phosphorylated p38 (P-p38)
Assay: IT substance P-evoked spinal p38 phosphorylation (Western blot)
Type: in vivo, rat
Settings: IT AS daily for five days, assessed 30 minutes after IT SP injection, compared to the MS group
Procedure: Yaksh et al., Nature 286: 155-157, 1980; Yaksh, Trends Pharmacol Sci 20: 329-337, 1999. […] Malmberg and Yaksh, Science 257: 1276-1279, 1992; Svensson et al., J Neurochem 86: 1534-1544, 2003. […] To investigate the contribution of p38α and p38β to SP-evoked hyperalgesia and p38 phosphorylation, spinal delivery of p38α and p38β AS and MS was carried out. Thermal withdrawal latencies was assessed after IT injection of SP and lumbar spinal cords collected immediately to compare the degree of spinal p38 phosphorylation at the hypothesized time of peak phosphorylation. IT injection of SP into the MS group produced an expected reduction of thermal withdrawal latency in comparison with IT saline injection into to vehicle treated animals (FIG. 7C). […] In contrast, IT SP-induced thermal hyperalgesia was attenuated in rats which had received p38β AS (FIG. 7E). […] Stripping and reprobing the western blot membranes confirmed that p38α protein expression was knocked down in p38α AS treated group (FIG. 7D) as well as p38β in the p38β AS group (FIG. 7F).
(A) Graph displaying paw withdrawal latency (PWL) plotted versus time. […] (B) Representative western blots showing levels of P-p38, total p38 and β-actin in lumbar spinal cord at different time points after IT injection of SP (30 nmol). IT-SP induced p38 phosphorylation peaks 30 minutes after SP injection. (C, E) Graph showing PWL assessed 15 and […] after bolus injection of IT saline or IT SP injection in rats treated with IT ACSF, MS (30 μg), p38α AS (30 fig) or p38β AS (20 μg) daily for five days. […] IT injection of MS or ACSF had no effect on IT SP-evoked thermal hyperalgesia. Each time point represents the mean ±SEM (n=4-5 per group). (D, F) Representative western blots showing the level of P-p38, p38α and p38β and β-actin protein expression assessed 30 minutes after IT SP injection.
Western blot. Prior to sacrifice, rats were deeply anesthetized and after decapitation the spinal cords were ejected from the vertebral column by a saline-filled syringe. The lumbar part of the spinal cord was immediately homogenized in extraction buffer (50 mM Tris buffer, pH 8.0, containing 0.5% Triton X-100, 150 mM NaCl, 1 mM EDTA, phosphatase and protease inhibitors) by sonication. […] After washing, the antibody-protein complexes were probed with appropriate secondary antibodies labeled with horseradish peroxidase for 1 hr at room temperature and detected with chemiluminescent reagents (SuperSignal, Pierce, Rockford, Ill.). […] Intensity of immunoreactive bands was quantified using ImageQuant software (Molecular Dynamics, Sunnyvale, Calif.). p38 immuno-positive bands were normalized relative to β-actin.

| Substance | phosphorylation of spinal p38 following IT SP | phosphorylation of spinal p38 following IT SP (listed as p38 AS) |
| --- | --- | --- |
| p38α AS: 20-nucleotide 2′-MOE phosphorothioate chimeric antisense AGGTGCTCAGGACTCCATTT, beginning at position 1081 in the rat p38α mRNA (all phosphorothioate, sugars by position and methylation of C not given here; 2'-MOE chimeric (gapmer) antisense) | did not show a reduction; also recorded: No difference in P-p38 |  |
| p38β AS: 20-nucleotide 2′-MOE phosphorothioate chimeric antisense GTATGTCCTCCTCGCGTGGA, beginning at position 439 in the rat p38β mRNA (all phosphorothioate, sugars by position and methylation of C not given here; 2'-MOE chimeric (gapmer) antisense) | pronounced reduction | significantly lower |
